# Read-outs that look alike come from different tables or passages of the source.
# Legend:
# [1] = biological target: H23 fusion (MDH-scaffolded KKRQKKKRK linker-fumarase); assay: inhibition of fumarate to NADH cascade, Lineweaver-Burk; type: biochemical, Escherichia coli; conditions: 500 µM NAD+, fumarate 0.25-8 mM, 100 mM potassium phosphate, 0.5 nM enzyme; competitive at the MDH part; cascade read-out; read-out: apparent Ki
# [2] = biological target: V0 fusion (MDH-G4SG4S-fumarase); assay: as above; type: biochemical, Escherichia coli; conditions: 500 µM NAD+, fumarate 0.25-8 mM, 100 mM potassium phosphate, 0.5 nM enzyme; competitive at the MDH part; cascade read-out; read-out: apparent Ki
# Experimental: inhibition of fumarate to NADH cascade, Lineweaver-Burk on V0 fusion (MDH-G4SG4S-fumarase) | the apparent inhibition constant (Ki) of citrate on the enzymatic cascade was determined
# [3] = test system: Single-chain T. thermophilus Fumarase #1 H23 MDH Linkage (T1-H23); conditions: fumarase component; potassium phosphate buffer, 1 µM enzyme
# [4] = test system: V0 fusion (MDH-G4SG4S-fumarase); conditions: fumarase component; potassium phosphate buffer, 20 nM enzyme; free enzyme
# [5] = test system: Single-chain T. thermophilus Fumarase #1 V0 MDH Linkage (T1-V0); conditions: fumarase component; potassium phosphate buffer, 1 µM enzyme
# [6] = biological target: T1, WT Fumarase (FumC, class II) (Escherichia coli, UniProt P05042); assay: UV absorbance of fumarate, Lineweaver-Burk; type: biochemical; conditions: potassium phosphate buffer, 20 nM enzyme; free enzyme
# T1 construct: full length, N-terminal leader […]; (His tag, T7 gene 10 leader, Xpress) in pBAD, expressed in E. coli XL1-Blue; homotetramer
# T1 sequence (P05042 1-467): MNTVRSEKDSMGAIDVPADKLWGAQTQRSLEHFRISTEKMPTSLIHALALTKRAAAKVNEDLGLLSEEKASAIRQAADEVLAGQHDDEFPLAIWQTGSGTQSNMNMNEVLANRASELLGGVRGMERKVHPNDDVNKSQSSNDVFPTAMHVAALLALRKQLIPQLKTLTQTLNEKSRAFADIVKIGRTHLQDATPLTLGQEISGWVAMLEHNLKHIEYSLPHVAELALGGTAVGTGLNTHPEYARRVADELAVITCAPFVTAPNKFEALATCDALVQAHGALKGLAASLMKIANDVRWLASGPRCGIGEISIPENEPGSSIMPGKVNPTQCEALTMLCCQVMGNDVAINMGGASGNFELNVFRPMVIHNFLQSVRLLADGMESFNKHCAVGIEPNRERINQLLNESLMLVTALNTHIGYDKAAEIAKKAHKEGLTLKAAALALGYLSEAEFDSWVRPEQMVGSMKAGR
# [7] = test system: H23 fusion (MDH-scaffolded KKRQKKKRK linker-fumarase); conditions: fumarase component; potassium phosphate buffer, 20 nM enzyme; free enzyme
# [8] = test system: T2, Single-chain T. thermophilus Fumarase #1; conditions: potassium phosphate buffer, 1 µM enzyme
# T2 construct: gene fumC
# [9] = test system: T3, Single-chain E. coli Fumarase #2; conditions: potassium phosphate buffer, 1 µM enzyme
# T3 construct: gene fumC
# [10] = test system: Single-chain T. thermophilus Fumarase #1 V0 MDH Linkage (T1-V0); conditions: MDH component; 50 mM NAD+, potassium phosphate buffer; not told whether the fumarase part was inactivated
# [11] = test system: V0 fusion (MDH-G4SG4S-fumarase); conditions: MDH component, fumarase part inactivated; 50 mM NAD+, potassium phosphate buffer, 1 nM enzyme
# [12] = test system: Single-chain T. thermophilus Fumarase #1 H23 MDH Linkage (T1-H23); conditions: MDH component; 50 mM NAD+, potassium phosphate buffer; not told whether the fumarase part was inactivated
# [13] = test system: H23 fusion (MDH-scaffolded KKRQKKKRK linker-fumarase); conditions: MDH component, fumarase part inactivated; 50 mM NAD+, potassium phosphate buffer, 1 nM enzyme
structure (smiles),measurement,setting,value
O=C(O)CC(O)(CC(=O)O)C(=O)O [citrate],Ki,[1],8.57 ± 0.71 mM
same,Ki,[2],1.65 ± 0.15 mM
O=C(O)/C=C/C(=O)O [fumarate],Km,[3],972 ± 62 µM
same,Km,[4],759 ± 51 µM
same,Km,[5],969 ± 61 µM
same,Km,[6],443 ± 101 µM
same,Km,[7],934 ± 66 µM
same,Km,[8],809 ± 59 µM
same,Km,[9],758 ± 192 µM
O=C(O)C[C@H](O)C(=O)O [malate],Km,[10],1050 ± 390 µM
same,Km,[11],1210 ± 70 µM
same,Km,[12],1150 ± 370 µM
same,Km,[13],1220 ± 60 µM

# From article doi:10.1101/2025.11.21.689824v1, “Fluorescent Biosensor-Guided Engineering of Enzyme Cascades for Electrochemical Applications” (biorxiv, 2025)
